# Legend:
# Format in all cases: cell-based
# human TLR4 [1] = biological target: T1, human TLR4 (Homo sapiens, UniProt O00206+Q9Y6Y9); test: Mixed agonist-antagonist dose curves at fixed ratio, human TLR4 HEK-Blue SEAP; set-up: host or cells: HEK-Blue (HEK293-derived) reporter cells
# Protocol: (§1) SEAP assays were performed to evaluate the extent to which TLR4 signaling was activated in HEK-Blue reporter cells expressing mouse or human receptors (CD14, MD2 and TLR4). Reporter cells were harvested when 70–80% confluent and plated in 96-well, flat-bottom microtiter plates either 1 h, one day or two days (5 × 10^4, 4 × 10^4 or 2 × 10^4 cells/well, respectively) before addition of TLR4 agonists for 18–24 h. Culture supernatants were transferred to U-bottom microtiter plates, centrifuged and transferred again to microtiter plates to ensure reporter cells were not present. The culture supernatants were added to QUANTI-BLUE substrate following instructions provided by the manufacturer (InvivoGen cat. nos. rep-qbl or rep-qbs) and incubated at 37°C in a tissue culture incubator. At successive intervals beginning 10 min after mixing the supernatants and substrate, the plates were placed in an Emax plate reader (Molecular Devices LLC) and optical density was measured at visible light wavelength […] (OD650). The shortest incubations at which dose response curve fits produced maximal R^2 ‘goodness of fit’ values, as determined by GraphPad Prism software, were used for analysis.
# Pharmacological profiles of the TLR4 reagents were generated by performing dose response curves in one of four formats. 1) Agonist potency and efficacy (EC50 and height of dose plateau, respectively) were measured by diluting TLR4 reagents successively in complete culture medium [DMEM or RPMI supplemented with fetal bovine serum (FBS) or RPMI supplemented with human serum, depending on cell-type]. Half-log step dilutions were performed in 96-well, U-bottom microtiter plates using a multichannel pipette to transfer and mix the suspensions, with fresh tips used for each dilution step. One-tenth (20 μl) volumes from wells of the dilution plate were then transferred to wells containing cells that had been plated in nine-tenth volumes (180 μl) of culture medium. 2) Mixed agonist–antagonist potency and efficacy were measured by mixing a TLR4 agonist with a candidate antagonist at a fixed ratio and then performing half-log step dilutions before treating HEK reporter cells. Analysis of values obtained from SEAP assays of culture supernatants was then performed as described for preparations containing agonist alone, above. 3) Competitive vs allosteric or non-competitive antagonist type was evaluated by diluting a reference agonist within a fixed concentration of a candidate inhibitor in half-log steps, treating HEK reporter cells, performing SEAP assays and then analyzing the data as described for agonist assays, above. Competitive antagonists are characterized by values that reach the same dose plateau as for a reference, full agonist, while shifting potency to higher EC50 values. […] 4) Inhibitory potency (IC50) was measured by diluting antagonists within a fixed concentration of a reference agonist, treating HEK reporter cells and performing SEAP assays as described.
# human TLR4 [2] = biological target: T1, human TLR4; test: Competitive vs non-competitive antagonist type: agonist diluted in a fixed concentration of inhibitor, human TLR4 HEK-Blue SEAP; set-up: host or cells: HEK-Blue (HEK293-derived) reporter cells; conditions: fixed ML3 3 μM, ML4A 3 μM or Lipid IVa 0.1 μM; agonist PHAD or 3D-6A-PHAD diluted from 10 μM
# Protocol: as §1
# Pharmacological profiles of the TLR4 reagents were generated by performing dose response curves in one of four formats. 1) Agonist potency and efficacy (EC50 and height of dose plateau, respectively) were measured by diluting TLR4 reagents successively in complete culture medium [DMEM or RPMI supplemented with fetal bovine serum (FBS) or RPMI supplemented with human serum, depending on cell-type]. […] 2) Mixed agonist–antagonist potency and efficacy were measured by mixing a TLR4 agonist with a candidate antagonist at a fixed ratio and then performing half-log step dilutions before treating HEK reporter cells. […] 4) Inhibitory potency (IC50) was measured by diluting antagonists within a fixed concentration of a reference agonist, treating HEK reporter cells and performing SEAP assays as described.
# human THP-1 cells = test: TNFα secretion (ELISA) by THP-1 cells; conditions: THP-1, PMA-treated, 18-24 h
# Protocol: (§2) Human and mouse HEK-Blue reporter cells express human or mouse CD14, MD2, and TLR4 and secreted embryonic alkaline phosphatase (SEAP) under control of a promoter with binding sites for NFκB and AP-1 transcription factors (InvivoGen cat. nos. hkb-htlr4 and hkb-mtlr4). Cells were cultured as directed by the supplier, with the exception that Glutamax (ThermoFisher cat. no. 10569010) was used in place of L-glutamine, and TrypLE Express (ThermoFisher cat. no. 12605010) was used to release adherent cells for each passage. […]
# (§3) ELISA was performed to measure TNFα secretion by cell-lines and primary cells exposed to TLR4 reagents as a measure of receptor activation. […] Human or mouse TNα was quantified using ELISA kits as directed by the kit supplier (eBioscience cat. nos. 88-7324-77 and 88-7324-88, respectively) using an Emax plate reader and SoftMax Pro analytical software (Molecular Devices, LLC). […]
# (§4) Pharmacological profiles of the TLR4 reagents were generated by performing dose response curves in one of four formats. 1) Agonist potency and efficacy (EC50 and height of dose plateau, respectively) were measured by diluting TLR4 reagents successively in complete culture medium [DMEM or RPMI supplemented with fetal bovine serum (FBS) or RPMI supplemented with human serum, depending on cell-type]. […]
# mouse RAW264.7 cells = test: TNFα secretion (ELISA) by RAW264.7 cells; conditions: RAW264.7, 18-24 h
# Protocol: as §2, §3, §4
# [3] = mixed with 3D-6A-PHAD at 5:1 antagonist:agonist
# [4] = mixed with PHAD, ML4A up to 30:1 and 60:1 antagonist:agonist
# T1 sequence (O00206 24-839): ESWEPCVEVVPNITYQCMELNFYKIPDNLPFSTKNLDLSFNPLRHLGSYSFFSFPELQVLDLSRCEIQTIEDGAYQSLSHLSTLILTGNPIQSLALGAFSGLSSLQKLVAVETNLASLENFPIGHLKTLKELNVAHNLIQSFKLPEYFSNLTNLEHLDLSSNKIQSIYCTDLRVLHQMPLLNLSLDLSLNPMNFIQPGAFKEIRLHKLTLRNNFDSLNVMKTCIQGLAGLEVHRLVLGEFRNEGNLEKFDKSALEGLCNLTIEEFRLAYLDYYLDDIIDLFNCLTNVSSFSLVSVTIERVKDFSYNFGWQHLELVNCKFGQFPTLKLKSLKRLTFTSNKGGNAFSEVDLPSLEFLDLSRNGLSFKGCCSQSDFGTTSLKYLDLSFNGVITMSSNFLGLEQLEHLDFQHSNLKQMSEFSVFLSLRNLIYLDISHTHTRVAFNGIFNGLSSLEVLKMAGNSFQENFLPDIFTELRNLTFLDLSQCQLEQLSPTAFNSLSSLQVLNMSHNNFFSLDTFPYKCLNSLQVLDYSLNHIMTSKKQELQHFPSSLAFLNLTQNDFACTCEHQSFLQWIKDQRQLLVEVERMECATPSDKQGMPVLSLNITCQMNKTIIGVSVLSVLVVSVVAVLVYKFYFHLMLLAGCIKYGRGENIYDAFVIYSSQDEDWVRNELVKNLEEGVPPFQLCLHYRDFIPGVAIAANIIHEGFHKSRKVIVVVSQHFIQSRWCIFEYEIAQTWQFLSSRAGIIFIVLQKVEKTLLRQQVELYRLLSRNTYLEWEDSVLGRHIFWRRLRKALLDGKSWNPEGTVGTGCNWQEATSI
# T1 sequence (Q9Y6Y9 17-160 limits assumed): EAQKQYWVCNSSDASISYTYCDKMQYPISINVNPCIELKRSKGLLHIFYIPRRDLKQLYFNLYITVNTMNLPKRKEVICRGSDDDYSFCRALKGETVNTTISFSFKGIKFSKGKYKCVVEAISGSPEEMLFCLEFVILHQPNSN
effect on agonist dose curve in fixed-ratio mixture (human TLR4 [1]; [3]),antagonist type (human TLR4 [2]),Compound,effect on agonist dose curve in fixed-ratio mixture (human TLR4 [1]; [4]),"agonist profile, TNFα production (human THP-1 cells)","agonist profile, TNFα production (mouse RAW264.7 cells)"
appeared to limit its activity,competitive antagonists of human TLR4,CCCCCCCCCCCC(=O)OC(CCCCCCCCCCC)CC(=O)NC1C(OCC2OC(O)C(NC(=O)CC(O)CCCCCCCCCCC)C(O)C2O)OC(CO)C(OP(=O)(O)O)C1O (stereo not shown) [ML3],very modestly reduced TLR4 stimulatory activity,largely inactive,largely inactive
appeared to limit its activity,competitive antagonists of human TLR4,CCCCCCCCCCCC(=O)OC(CCCCCCCCCCC)CC(=O)NC1C(OCC2OC(O)C(NC(=O)CC(O)CCCCCCCCCCC)C(O)C2O)OC(CO)C(OP(=O)(O)O)C1OC(=O)CC(O)CCCCCCCCCCC (stereo not shown) [ML4A],very modestly reduced TLR4 stimulatory activity,–,–
–,–,CCCCCCCCCCCCCCCC(=O)OC(CCCCCCCCCCC)CC(=O)NC1C(O)OC(COC2OC(CO)C(OP(=O)(O)O)C(O)C2NC(=O)CC(CCCCCCCCCCC)OC(=O)CCCCCCCCCCC)C(O)C1O (stereo not shown) [ML4B],–,largely inactive,largely inactive

# Reference: PMC7596181 (Frontiers in Immunology, 2020)
